These results are taken from patent US10851112B2, “Anti-HCMV virus compound” (MEDSHINE DISCOVERY INC., priority 2016, dated 2020).

Data set [1] relates to US3-6-EGFP-HCMV-AD169 viruses. Put plainly: Fluorescence decay assay against human cytomegalovirus. It is filed as cell-based, human cytomegalovirus (HCMV). The following applies: Human betaherpesvirus 5, AD169, MRC5, 240 h. As for the experimental part: Fluorescence Decay Assay Against Human Cytomegalovirus
The antiviral activity of the compound against human cytomegalovirus (HCMV) was evaluated by determining the half maximal effective concentration (EC50) of the compound. The HCMV used in this assay was inserted with enhanced green fluorescent protein (EGFP) by gene recombination, so the viral replication in cells could be reflected by the expression level of GFP. The inhibitory activity of the compound on HCMV GFP expression was evaluated by determining the fluorescence intensity in the wells of different concentrations of the compound using a high content cell analysis platform Acumen eX3.
Fluorescence Decay Assay Against HCMV
MRC5 cells were inoculated into a black 96-well cell culture plate at a density of 20,000 cells per well. The plate was incubated overnight in a 37° C., 5% CO2 incubator. US3-6-EGFP-HCMV-AD169 viruses were added to the cell culture well at a certain MOI (0.003-0.1) and the plate was incubated for 3 hours in a 37° C., 5% CO2 incubator. After adsorption of viruses, the medium containing viruses was aspirated and 200 μL of cell culture medium containing different concentrations of the compound (4-fold dilution, 6 test concentrations) was added. The final concentration of DMSO in the medium was 1%. Virus control wells (with DMSO added, but no compound was added) and inhibition control wells (with a high concentration of control compound added) were set. The cell plate was incubated for 10 days in a 37° C., 5% CO2 incubator and the liquid was renewed on the 4th day and 7th day. After 10 days of culture, the fluorescence intensity was determined using a high content cell analysis platform Acumen eX3 (TTP LabTech). The original data was used for calculating the antiviral activity of the compound.
The inhibition % was imported into GraphPad Prism software for data processing to give a corresponding dose-response curve for the compound and the EC50 of the test compound was obtained.

Data set [2] is described as follows: Plasma protein binding rate test, equilibrium dialysis, human plasma. It is filed as in vitro ADME. The following applies: equilibrium dialysis 37° C. 4 hours, read-out: plasma protein binding PPB bound (%) (converted). As for the experimental part: (§1) Plasma Protein Binding Rate Test of the Compound
(§2) The protein binding rate of the test compound in CD-1 mice, SD rats, and human plasma was evaluated by equilibrium dialysis. The test compound was diluted into the plasma of the above three species respectively to prepare a sample with a final concentration of 2 μM. The sample was added to a 96-well equilibrium dialysis device, and dialyzed using a phosphate buffer solution at 37° C. for 4 hours. Warfarin was used as a control compound in the experiment. The concentration of the test compound and warfarin in the plasma and the buffer was determined by LC-MS/MS.
(Equilibrium dialysis compares concentrations on both sides of a semipermeable membrane.)

Data set [3] in a line: Plasma protein binding rate test, equilibrium dialysis, SD rat plasma. Particulars: rat plasma (R), equilibrium dialysis 37° C. 4 hours, read-out: plasma protein binding PPB bound (%) (converted). Type of data set: in vitro ADME. As for the experimental part: as §1, §2
Data set [4] is described as follows: Plasma protein binding rate test, equilibrium dialysis, CD-1 mouse plasma. It is filed as in vitro ADME. The following applies: mouse plasma (M), equilibrium dialysis 37° C. 4 hours, read-out: plasma protein binding PPB bound (%) (converted). As for the experimental part:
as §1, §2

Data set [5] concerns HCMV viruses (strain: GFP-AD169). As to the kind of experiment: Human cytomegalovirus (HCMV) transplantation model in mouse. It is filed as in vivo. The following applies: NOD SCID mice, oral 8 mg/kg once a day, 1st to 9th day, plaque detection in gelatin sponge. As for the experimental part: Human Cytomegalovirus (HCMV) Transplantation Model in Mouse
A gelatin sponge containing HCMV was transplanted into mice. After 9 days of continuous administration, the gelatin sponge was collected for plaque detection. The anti-HCMV effect of the compound in the model was evaluated by determining the amount of HCMV in the gelatin sponge.
The animals selected for the experiment were NOD SCID mice (purchased from Shanghai Slac Laboratory Animal Co., Ltd.), 5 weeks, male, 5 animals per group. The day when the mice were transplanted with gelatin sponge was set to be day 0. Human foreskin fibroblasts (HFF, MOI=0.03) were previously infected with HCMV viruses (strain: GFP-AD169). The HMV cells infected with HCMV were added to a 1 cm^2 gelatin sponge for incubation. Animals were anesthetized by intraperitoneal injection of pentobarbital sodium at a dose of 75 mg/kg (10 mL/kg). After the animals entered deep anesthesia, the prepared gelatin sponge was subcutaneously transplanted into the back of the mice. From 1st day to 9th day, the mice were orally administered with the test compound at a dose of 8 mg/kg (10 mL/kg) once a day. At 4 hours after the administration on the 9th day, the gelatin sponge was taken out and digested. The plaque was detected.

Bounds are passed on as bounds.

As for `COc1cc(N2CCN(C3=Nc4cscc4[C@H](CC(=O)O)N3c3cc(C(F)(F)F)ccc3OC)C[C@H]2C)ccn1` (single isomer, unassigned) [WX-151], the EC50 (commonly the concentration needed to bring the measured effect to its halfway point) in data set [1] was found to be 0.503 nM. Further, the figures for the fraction unbound at 4 h, 2 μM in data set [2], in data set [3] and in data set [4] were 0.047, 0.05 and 0.011, respectively. For the same compound, in data set [5], the “decrease in HCMV viral load” value was 2.30 log PFU/mL.

On to `COc1cc(N2CCN(C3=Nc4ccsc4[C@H](CC(=O)O)N3c3cc(C(F)(F)F)ccc3OC)CC2)ccn1` (single isomer, unassigned) [WX-109], for which the concentration for a half-maximal effect (EC50) in data set [1] was determined as 4 nM. Besides, the figures for the fraction unbound at 4 h, 2 μM in data set [2], in data set [3] and in data set [4] were 0.097, 0.108 and 0.055, respectively.

In the case of `COc1cc(N2CCN(C3=Nc4c(csc4F)[C@H](CC(=O)O)N3c3cc(C(F)(F)F)ccc3OC)C[C@H]2C)ncn1` (single isomer, unassigned) [WX-149], in data set [1], the EC50 worked out at 0.67 nM. In addition, the fraction unbound at 4 h, 2 μM is 0.024 in data set [2], 0.017 in data set [3] and 0.002 in data set [4].

Take `COc1cc(N2CCN(C3=Nc4ccsc4[C@H](CC(=O)O)N3c3cc(C(F)(F)F)ccc3OC)C[C@H]2C)ncn1` (single isomer, unassigned) [WX-143]: the EC50 in data set [1] came out at 0.89 nM. For the same compound, the fraction unbound at 4 h, 2 μM in data set [2] is 0.069; in data set [3] it was 0.066; in data set [4], 0.015.

On to `COc1cc(N2CCN(C3=Nc4ccsc4[C@H](CC(=O)O)N3c3cc(C(F)(F)F)ccc3OC)C[C@H]2C)ccn1` (single isomer, unassigned) [WX-141], for which, in data set [1], the concentration giving a half-maximal response (EC50) was 0.2 nM. The fraction unbound at 4 h, 2 μM in data set [2] is 0.06; in data set [3], 0.061; in data set [4], 0.017. Also, the “decrease in HCMV viral load” value in data set [5] is given as 2.38 log PFU/mL.

For the compound `COc1cc(N2CCN(C3=Nc4c(csc4F)[C@H](CC(=O)O)N3c3cc(C(F)(F)F)ccc3OC)C[C@H]2C)ccn1` (single isomer, unassigned) [WX-147], the EC50 in data set [1] amounted to 0.17 nM. In addition, the fraction unbound at 4 h, 2 μM is 0.018 in data set [2], 0.014 in data set [3] and 0.002 in data set [4].

Regarding `COc1cccc(N2CCN(C3=Nc4c(csc4F)[C@H](CC(=O)O)N3c3cc(C(F)(F)F)ccc3OC)C[C@H]2C)c1` (single isomer, unassigned) [WX-132], the half-maximal effective concentration (EC50) in data set [1] was 0.15 nM. The fraction unbound at 4 h, 2 μM in data set [2] is 0.022; in data set [3], 0.017; in data set [4], 0.011.

For `COc1cc(N2[C@H](C)CN(C3=Nc4ccsc4[C@H](CC(=O)O)N3c3cc(C(F)(F)F)ccc3OC)C[C@@H]2C)ccn1` (single isomer, unassigned) [WX-161], the concentration giving a half-maximal response (EC50) in data set [1] is 0.317 nM. The fraction unbound at 4 h, 2 μM was 0.02 in data set [2], 0.023 in data set [3] and 0.004 in data set [4].

Consider `COc1ccnc(N2CCN(C3=Nc4ccsc4[C@H](CC(=O)O)N3c3cc(C(F)(F)F)ccc3OC)C[C@H]2C)c1` (single isomer, unassigned) [WX-139], for which the EC50 in data set [1] came out at 3 nM. The fraction unbound at 4 h, 2 μM in data set [2] is 0.06; in data set [3] it was 0.041; in data set [4], 0.014.

Regarding `COc1cccc(N2CCN(C3=Nc4ccsc4[C@H](CC(=O)O)N3c3cc(C(F)(F)F)ccc3OC)CC2)c1` (single isomer, unassigned) [WX-088], in data set [1], the EC50 was 2 nM. In addition, the fraction unbound at 4 h, 2 μM in data set [2] was 0.024; in data set [3], 0.028; in data set [4], 0.022.

For `COc1cccc(N2CCN(C3=Nc4ccsc4[C@H](CC(=O)O)N3c3cc(C(F)(F)F)ccc3OC)C[C@H]2C)c1` (single isomer, unassigned) [WX-136], the EC50 in data set [1] worked out at 0.17 nM. The “decrease in HCMV viral load” value in data set [5] stood at 2.33 log PFU/mL.

Consider `COc1cc(N2CCN(C3=Nc4c(C)csc4[C@H](CC(=O)O)N3c3cc(C(F)(F)F)ccc3OC)C[C@H]2C)ccn1` (single isomer, unassigned) [WX-153], for which, in data set [1], the EC50 amounted to 0.26 nM. Further, the fraction unbound at 4 h, 2 μM is 0.019 in data set [2], 0.02 in data set [3] and 0.011 in data set [4].

Turning to `COc1cncc(N2CCN(C3=Nc4ccsc4[C@@H](CC(=O)O)N3c3cc(C(F)(F)F)ccc3OC)C[C@H]2C)c1` (single isomer, unassigned) [WX-138], in data set [1], the EC50 was over 1000 nM.

With `COc1cccc(N2CCN(C3=Nc4c(csc4F)[C@@H](CC(=O)O)N3c3cc(C(F)(F)F)ccc3OC)CC2)c1` (single isomer, unassigned) [WX-075], the concentration giving a half-maximal response (EC50) in data set [1] was determined as 295 nM.

As to `CC[C@@H]1CN(C2=Nc3ccsc3[C@@H](CC(=O)O)N2c2cc(C(F)(F)F)ccc2OC)CCN1c1cccc(OC)c1` (single isomer, unassigned) [WX-169], the EC50 in data set [1] is over 538 nM.

On to `COc1ccnc(N2CCN(C3=Nc4c(csc4F)[C@H](CC(=O)O)N3c3cc(C(F)(F)F)ccc3OC)C[C@H]2C)c1` (single isomer, unassigned) [WX-145], for which, in data set [1], the EC50 was 2 nM. Also, the fraction unbound at 4 h, 2 μM is 0.023 in data set [2], 0.014 in data set [3] and 0.001 in data set [4].

On to `COc1cccc(N2CCN(C3=Nc4ccsc4[C@@H](CC(=O)O)N3c3cc(C(F)(F)F)ccc3OC)C[C@H]2C)c1` (single isomer, unassigned) [WX-135], for which the EC50 in data set [1] came out at 941 nM.

On to `COc1cc(N2[C@H](C)CN(C3=Nc4ccsc4[C@@H](CC(=O)O)N3c3cc(C(F)(F)F)ccc3OC)C[C@H]2C)ccn1` (single isomer, unassigned) [WX-197], for which the EC50 in data set [1] was over 10 nM.

On to `COc1cc(N2CCN(C3=Nc4cc(C)sc4[C@@H](CC(=O)O)N3c3cc(C(F)(F)F)ccc3OC)C[C@H]2C)ccn1` (single isomer, unassigned) [WX-174], for which the EC50 in data set [1] is over 10 nM.

Consider `COc1cccc(N2CCN(C3=Nc4cc(Cl)sc4[C@H](CC(=O)O)N3c3cc(C(F)(F)F)ccc3OC)CC2)c1` (single isomer, unassigned) [WX-107], for which, in data set [1], the 50% effective concentration (EC50) is 4 nM.

`COc1ccc(C(F)(F)F)cc1N1C(N2CCC(F)(c3ccc(F)cc3)CC2)=Nc2c(csc2F)[C@@H]1CC(=O)O` (single isomer, unassigned) [WX-099]: the concentration for a half-maximal effect (EC50) in data set [1] was found to be 24 nM.
